From patent US10513694B2, “Thienopyrrole compounds and uses thereof” (PROMEGA CORPORATION, priority 2015, dated 2019) come the findings set out here.

The target in one data set is NANOLUC® enzyme (Oplophorus gracilirostris, UniProt Q9GV45, A31E/A60N/A81I/F95D/I117V/K70R/L54V/L99Q/M102K/N193R/P142E/Q151K/Q38R/Q45L/V71I/Y165I). The data set is described as follows: Inhibitor IC50 determination (NANOLUC enzyme, furimazine). It is filed as biochemical. Conditions: IC50 (uM), 0.4 ng/ml NANOLUC enzyme, final furimazine 10 uM (at Km).
Another data set concerns the target Nluc (Oplophorus gracilirostris, UniProt Q9GV45, A31E/A60N/A81I/F95D/I117V/K70R/L54V/L99Q/M102K/N193R/P142E/Q151K/Q38R/Q45L/V71I/Y165I). In words: Specificity of inhibition of Nluc luciferase: Nluc. It is filed as biochemical.
For data set [1], the system named is Beta-2 Adrenergic Receptor-Nluc (B2AR-Nluc) fusion protein. The data set is described as follows: Cell permeability, B2AR-Nluc in HEK293 -/+ digitonin. It is filed as cell-based. Conditions: HEK293 B2AR-Nluc -/+ 50 μg/mL digitonin; up to 2 hrs. On the procedure: (§1) HEK293 were transiently transfected with Beta-2 Adrenergic Receptor-Nluc (B2AR-Nluc) fusion protein to anchor and orient Nluc cytosolically and pGEM-3z carrier DNA (1:100). 24 hrs post-transfection, cells were treated with −/+50 μg/mL digitonin to emulate a live and lytic scenario, respectively. Then, intact cells and permeabilized cells were exposed to a compound response curve of thienopyrrole compound up to 2 hrs. 10 μM furimazine (Promega Corp.) was added, and luminescence was measured. If a thienopyrrole compound (inhibitor) was permeable, the dose-response curves for both live and permeabilized cells overlapped. However, if a thienopyrrole compound was impermeable, the EC50 was right-shifted in the live cells relative to the permeabilized cells.

The subject of data set [2] is Nluc-ADRB2 (extracellular Nluc) or ADRB2-Nluc (intracellular Nluc). In words: Cell permeability with bioluminescent imaging (HeLa, Nluc-ADRB2 / ADRB2-Nluc). It is filed as cell-based. To be noted: 30 μM compound, 10 μM furimazine. As to the method: HeLa cells were transiently transfected with Nluc-ADRB2 (extracellular Nluc) or ADRB2-Nluc (intracellular Nluc) to anchor and orient Nluc extracellularly or intracellularly, respectively. 24 hrs post-transfection, cells were treated with −/+30 μM of a thienopyrrole compound, JRW-0147, JRW-0013, and JRW-0344. 10 μM furimazine was added, and luminescence was detected by imaging on the Olympus LV200.

The next data set deals with T1, purified Nluc enzyme (Oplophorus gracilirostris, UniProt Q9GV45, A31E/A60N/A81I/F95D/I117V/K70R/L54V/L99Q/M102K/N193R/P142E/Q151K/Q38R/Q45L/V71I/Y165I).
T1 construct: purchased Promega Corporation
The format is biochemical. To be noted: titration up to 100 μM final; RT 2 hrs; pro-substrate PBI-4442 + DTT. Summed up: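 Purified Nluc enzyme with 20 mM DTT and a pro-substrate reduced by DTT to the Nluc substrate. 11-point 1:2 compound titrations (top 100 μM final) incubated 2 h at RT; luminescence read and IC50 fitted.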

Data set [3] relates to Beta-2 Adrenergic Receptor-Nluc (B2AR-Nluc) fusion protein. In words: Cell permeability, B2AR-Nluc in HEK293 or HeLa cells -/+ digitonin. The format is cell-based. As to the method:
as §1, with “HEK293 or HeLa cells” for “HEK293”, “cytosolically.” for “cytosolically and pGEM-3z carrier DNA (1:100).”

Chain of Nluc (Q9GV45 28-196 with tags or gaps with the stated changes limits assumed): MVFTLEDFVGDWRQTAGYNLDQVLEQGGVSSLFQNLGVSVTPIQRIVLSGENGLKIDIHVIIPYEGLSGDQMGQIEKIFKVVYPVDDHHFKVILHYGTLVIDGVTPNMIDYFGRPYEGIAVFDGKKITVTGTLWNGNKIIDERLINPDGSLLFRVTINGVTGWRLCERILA
Chain of NANOLUC® enzyme (Q9GV45 28-196 with tags or gaps with the stated changes limits assumed): as above
T1 sequence (Q9GV45 28-196 with tags or gaps with the stated changes limits assumed): as above

For orientation: IC50 means the concentration at which inhibition is half-maximal. With `CCN(C(=O)Cn1c(C(=O)N[C@H]2CC[C@H](C(=O)NCCCCCCS(=O)(=O)[O-])CC2)cc2sccc21)c1cccc(C)c1.[Na+]` [JRW-0344, Sodium 6-(trans-4-(4-(2-(ethyl(m-tolyl)amino)-2-oxoethyl)-4H-thieno[3,2-b]pyrrole-5-carboxamido)cyclohexane-1-carboxamido)hexane-1-sulfonate], half-maximal inhibition at NANOLUC® enzyme (IC50) was put at 0.077 µM. Besides, the “Nluc, Avg (luminescence)” value at Nluc ([cmpd] 0.1953125 μM) turned out to be 102409; on Nluc ([cmpd] 0.390625 μM), 99851; at Nluc ([cmpd] 0.78125 μM), 95060; at Nluc ([cmpd] 1.5625 μM), 83141; on Nluc ([cmpd] 3.125 μM), 71976; on Nluc ([cmpd] 6.25 μM) it was 65136. Also, the “Nluc, Avg (luminescence)” value is 52627 on Nluc ([cmpd] 12.5 μM); 40392 on Nluc ([cmpd] 25 μM); 32113 on Nluc ([cmpd] 50 μM); 23445 on Nluc ([cmpd] 100 μM); 16291 on Nluc ([cmpd] 200 μM). The “Nluc, S/B” value at Nluc ([cmpd] 0.1953125 μM) is 0.92; on Nluc ([cmpd] 0.390625 μM) it was 0.90; on Nluc ([cmpd] 0.78125 μM) it was 0.86; on Nluc ([cmpd] 1.5625 μM) it was 0.75; on Nluc ([cmpd] 3.125 μM) it was 0.65; on Nluc ([cmpd] 6.25 μM) it was 0.59. The “Nluc, S/B” value was 0.47 on Nluc ([cmpd] 12.5 μM); 0.36 at Nluc ([cmpd] 25 μM); 0.29 on Nluc ([cmpd] 50 μM); 0.21 on Nluc ([cmpd] 100 μM); 0.15 at Nluc ([cmpd] 200 μM). In addition, the “Cell permeability, EC50 in Live vs Lytic cells (FIGS. 17A-17C)” value in data set [1] was “cell impermeable characterized by right shifted EC50 in Live vs. Lytic cells”. Also, in data set [2], the “Inhibition of Nluc oriented extracellularly / intracellularly by imaging (FIG. 19)” value is on record as “inhibit the classic ring-like structure, but not when Nluc is orientated intracellularly”.
With `CCN(C(=O)Cn1c(C(=O)N[C@H]2CC[C@H](C(=O)OC)CC2)cc2sccc21)c1cccc(C)c1` [JRW-0013, trans-methyl-4-(4-(2-(ethyl(m-tolyl)amino)-2-oxoethyl)-4H-thieno[3,2-b]pyrrole-5-carboxamido)cyclohexane-1-carboxylate], the IC50 against NANOLUC® enzyme stood at 0.14 µM. In addition, on purified Nluc enzyme, the “Inhibition of purified Nluc enzyme (FIG. 2)” value is listed as “capable of inhibiting purified Nluc enzyme”. The Cell permeability result in data set [3] is “cell-permeable”. For the same molecule, in data set [1], the “Cell permeability, EC50 in Live vs Lytic cells (FIGS. 17A-17C)” value is listed as “cell permeable control characterized by similar EC50 in Live vs Lytic cells”. For the same molecule, in data set [2], the “Inhibition of Nluc oriented extracellularly / intracellularly by imaging (FIG. 19)” value is listed as “inhibited Nluc in either orientation”.
The molecule `CCN(C(=O)Cn1c(C(=O)N[C@H]2CC[C@H](C(=O)NCCCCCC(=O)O)CC2)cc2sccc21)c1cccc(C)c1` [JRW-0147, 6-(trans-4-(4-(2-(ethyl(m-tolyl)amino)-2-oxoethyl)-4H-thieno[3,2-b]pyrrole-5-carboxamido)cyclohexane-1-carboxamido)hexanoic acid] showed an IC50 against NANOLUC® enzyme of 0.094 µM. Further, at purified Nluc enzyme, the “Inhibition of purified Nluc enzyme (FIG. 2)” value is on record as “capable of inhibiting purified Nluc enzyme”. Moreover, the Cell permeability result in data set [3] is reported as “cell-impermeable”. In addition, the “Nluc, Avg (luminescence)” value on Nluc ([cmpd] 0.1953125 μM) was 115442; on Nluc ([cmpd] 0.390625 μM) it was 113278; on Nluc ([cmpd] 0.78125 μM), 111603; on Nluc ([cmpd] 1.5625 μM), 103399; at Nluc ([cmpd] 3.125 μM), 96256; on Nluc ([cmpd] 6.25 μM) it was 79191. Further, the “Nluc, Avg (luminescence)” value at Nluc ([cmpd] 12.5 μM) was 66480; at Nluc ([cmpd] 25 μM) it was 54498; at Nluc ([cmpd] 50 μM), 42630; on Nluc ([cmpd] 100 μM) it was 32702; at Nluc ([cmpd] 200 μM) it was 23722. Moreover, the “Nluc, S/B” value on Nluc ([cmpd] 0.1953125 μM) is given as 0.97; on Nluc ([cmpd] 0.390625 μM) it was 0.95; at Nluc ([cmpd] 0.78125 μM), 0.94; at Nluc ([cmpd] 1.5625 μM) it was 0.87; at Nluc ([cmpd] 3.125 μM), 0.81; on Nluc ([cmpd] 6.25 μM), 0.67. For the same molecule, the “Nluc, S/B” value is 0.56 at Nluc ([cmpd] 12.5 μM); 0.46 on Nluc ([cmpd] 25 μM); 0.36 on Nluc ([cmpd] 50 μM); 0.27 at Nluc ([cmpd] 100 μM); 0.20 at Nluc ([cmpd] 200 μM). In data set [1], the “Cell permeability, EC50 in Live vs Lytic cells (FIGS. 17A-17C)” value is reported as “cell impermeable characterized by right shifted EC50 in Live vs. Lytic cells”. Moreover, the “Inhibition of Nluc oriented extracellularly / intracellularly by imaging (FIG. 19)” value in data set [2] was “inhibit the classic ring-like structure, but not when Nluc is orientated intracellularly”.
